Where two headings read alike, the source gives them in different places.
Columns and labels:
E. coli = assay type: cell-based, Escherichia coli; conditions: aerobic
Description: For MIC evaluations, the final results are expressed in chemical agent concentrations determined by analysis of the stock solution by HPLC (i.e., see Subsection Mb).
The minimum inhibitory concentration (MIC) was determined aerobically in a 96 well-plate format. […] Media supplements were added according to levels reported in the Supplements Table, where specified. Overnight cultures of strains were grown in triplicate in 5 mL LB (with antibiotic where appropriate). A 1% (v/v) inoculum was introduced into a 5 ml culture of M9 minimal media.

[1] = tested on: wild-type E. coli BW25113; experiment: Toleragram / OD600 / doublings at 3HP 0-50 g/L, E. coli aerobic; assay type: cell-based, Escherichia coli; conditions: control E. coli, aerobic condition, FIG. 15B
Description: Overnight cultures of wild-type E. coli BW25113 were grown in triplicate in 5 mL standard LB medium. 100 uL of overnight cultures were used to inoculate triplicate 5 mL samples of M9 minimal medium+3HP, containing 47.7 mM Na2HPO4, 22 mM KH2PO4, 8.6 mM NaCl, 18.7 mM NH4Cl, 2 mM MgSO4, 0.1 mM CaCl2, and 0.4% glucose, with 3HP concentrations ranging from 0-50 g/L. Starting OD600 ranged from 0.02-0.08. Cultures were incubated at 37 C for about 24 hours, and OD600 was recorded every 1-2 hours for the first 8 hours with a final OD600 recorded at about 24 hours. Maximum specific growth rates (μmax) were calculated by determining the optimal fit of exponential trend lines with OD data for the evaluation period. Specific changes in OD600 over approximately 24 hours (Δ24hrOD600) were calculated as the difference in t=24 hr and t=0 optical density, Δ24hrOD600=(ODt=24)−(ODt=0). Specific number of doublings (Nd) were calculated by solving for N in the equation 2^N=(ODt=24)/(ODt=0).

[2] = tested on: Yeast strains (S288C background); assay type: cell-based, Saccharomyces cerevisiae
Description: The minimum inhibitory concentration (MIC) was determined anaerobically in a 96 well-plate format. […] A 1% (v/v) inoculum was introduced into a 5 ml culture of SD minimal media without vitamins. After the cells reached mid-exponential phase, the culture was diluted to an OD600 of 0.200. The cells were further diluted 1:5 and a 10 μL aliquot was used to inoculate each well of a 96 well plate (˜10^4 cells per well) to total volume of 100 uL. […] Plates were incubated for 72 hours at 30 C. […] Plates were sealed in biobag anaerobic chambers that contained gas generators for anaerobic conditions and incubated for 72 hours at 30 C.

[3] = Reactive extraction of 3-HP from fermentation broth with tertiary amine and co-solvents, single pass extraction efficiency; assay type: physicochemical
Description: Calcium chloride at 1 M was added as a flocculent to reach a final concentration of about 8.2 g/L. Thereafter the pH was adjusted to a pH of approximately 2.0 using sulfuric acid. Thereafter a volume of this modified fermentation broth was centrifuged at approximately 3,200 g for 5 minutes to yield a clarified broth and a pellet, which was discarded.
Portions of the clarified broth were then subjected to reactive extraction by mixing with a tertiary amine non-polar phase comprising various co-solvents.

[4] = Tripentylamine with Butanol (2)
[5] = Tripentylamine with Methyl ethyl ketone (4)
[6] = Tripentylamine with Methyl tert-butyl ether (5)
[7] = Tripentylamine with p-Xylene (3)

O=C(O)CCO [3-HP, 3-hydroxypropionic acid]
% Increase Over Control (E. coli; strain BX_00301.0: BW25113 wild type + pSmart-LC-Kan-folA-C1, M9 + Kan 20 μg/mL): 40%
% Increase Over Control (E. coli; strain BX_00302.0: BW25113 wild type + pSmart-LC-Kan-folA-ORF, M9 + Kan 20 μg/mL): 20%
% Increase Over Control (E. coli; strain BX_00304.0: BW25113 wild type + pSmart-LC-Kan-menA-ORF, M9 + Kan 20 μg/mL): 40%
% Increase Over Control (E. coli; strain BX_00305.0: BW25113 wild type + pSmart-LC-Kan-pheA-C1, M9 + Kan 20 μg/mL): 40%
% Increase Over Control (E. coli; strain BX_00307.0: BW25113 wild type + pSmart-LC-Kan-tyrA-C1, M9 + Kan 20 μg/mL): 40%
% Increase Over Control (E. coli; strain BX_00309.0: BW25113 wild type + pSmart-LC-Kan-cynTS, M9 + Kan 20 μg/mL): 40%
% Increase Over Control (E. coli; strain BX_00310.0: BW25113 wild type + pSmart-LC-Kan-glyA, M9 + Kan 20 μg/mL): 40%
% Increase Over Control (E. coli; strain BX_00312.0: BW25113 wild type + pSmart-LC-Kan-serA, M9 + Kan 20 μg/mL): 40%
% Increase Over Control (E. coli; strain BX_00313.0: BW25113 wild type + pSmart-LC-Kan-folD, M9 + Kan 20 μg/mL): 20%
% Increase Over Control (E. coli; strain BX_00314.0: BW25113 wild type + pSmart-LC-Kan-aroE, M9 + Kan 20 μg/mL): 40%
% Increase Over Control (E. coli; strain BX_00315.0: BW25113 wild type + pSmart-LC-Kan-aroKB C1, M9 + Kan 20 μg/mL): 40%
% Increase Over Control (E. coli; strain BX_00317.0: BW25113 wild type + pSmart-LC-Kan-ilvA operon, M9 + Kan 20 μg/mL): 40%
% Increase Over Control (E. coli; strain BX_00318.0: BW25113 wild type + pSmart-LC-Kan-cysM, M9 + Kan 20 μg/mL): 40%
% Increase Over Control (E. coli; strain BX_00319.0: BW25113 wild type + pK223-aroH, M9 + Amp 100 μg/mL + 1 mM IPTG): 50%
% Increase Over Control (E. coli; strain BX_00321.0: BW25113 wild type + pK223-ct-his-thrA, M9 + Amp 100 μg/mL + 1 mM IPTG): 75%
% Increase Over Control (E. coli; strain BX_00322.0: BW25113 wild type + pJ61-speFED, M9 + Kan 20 μg/mL): 40%
% Increase Over Control (E. coli; strain BX_00323.0: BW25113 wild type + pJ61-aroG, M9 + Kan 20 μg/mL): 40%
% Increase Over Control (E. coli; strain BX_00324.0: BW25113 wild type + pJ61-thrA, M9 + Kan 20 μg/mL): 40%
% Increase Over Control (E. coli; strain BX_00325.0: BW25113 wild type + pJ61-asd, M9 + Kan 20 μg/mL): 40%
% Increase Over Control (E. coli; strain BX_00326.0: BW25113 wild type + pJ61-ilvA, M9 + Kan 20 μg/mL): 40%
% Increase Over Control (E. coli; strain BX_00327.0: BW25113 wild type + pJ61-cysM, M9 + Kan 20 μg/mL): 40%
% Increase Over Control (E. coli; strain BX_00334.0: BW25113 wild type + pSmart-HC-Amp-cadA, M9 + Amp 100 μg/mL): 60%
% Increase Over Control (E. coli; strain BX_00335.0: BW25113 wild type + pSmart-HC-Amp-prs, M9 + Amp 100 μg/mL): 40%
% Increase Over Control (E. coli; strain BX_00336.0: BW25113 wild type + pSmart-HC-Amp-nrdAB, M9 + Amp 100 μg/mL): 40%
% Increase Over Control (E. coli; strain BX_00337.0: BW25113 wild type + pSmart-HC-Amp-nrdEF, M9 + Amp 100 μg/mL): 40%
% Increase Over Control (E. coli; strain BX_00352.0: BW25113 wild type + pSmart-LC-Kan-metC C1, M9 + Amp 100 μg/mL): 40%
% Increase Over Control (E. coli; strain BX_00353.0: BW25113 wild type + pSmart-HC-Amp-metC, M9 + Amp 100 μg/mL): 80%
% Increase Over Control (E. coli; strain BX_00354.0: BW25113 wild type + pSmart-HC-Amp-cynTS, M9 + Amp 100 μg/mL): 80%
% Increase Over Control (E. coli; strain BX_00356.0: BW25113 wild type + pSmart-HC-Amp-LysA, M9 + Amp 100 μg/mL): 20%
% Increase Over Control (E. coli; strain BX_00357.0: BW25113 wild type + pKK223-aroH*445, M9 + Amp 100 μg/mL + 1 mM IPTG): 50%
% Increase Over Control (E. coli; strain BX_00358.0: BW25113 wild type + pKK223-aroH*447, M9 + Amp 100 μg/mL + 1 mM IPTG): 75%
% Increase Over Control (E. coli; strain BX_00359.0: BW25113 wild type + pKK223-aroH*457, M9 + Amp 100 μg/mL + 1 mM IPTG): 75%
% Increase Over Control (E. coli; strain BX_00361.0: BW25113 wild type + pACYC177 (Kan only)-cynTS, M9 + Kan 20 μg/mL): 40%
% Increase Over Control (E. coli; strain BX_00362.0: BW25113 wild type + pACYC177 (Kan only)-aroH, M9 + Kan 20 μg/mL + 1 mM IPTG): 20%
% Increase Over Control (E. coli; strain BX_00363.0: BW25113 wild type + pACYC177 (kan only)-speB, M9 + Kan 20 μg/mL): 40%
% Increase Over Control (E. coli; strain BX_00364.0: BW25113 wild type + pACYC177 (Kan only)-metE (Version1) (SS090608_13), M9 + Kan 20 μg/mL + 1 mM IPTG): 40%
% Increase Over Control (E. coli; strain BX_00365.0: BW25113 wild type + pACYC177 (Kan only)-metC (Version1) (SS090608_17), M9 + Kan 20 μg/mL): 40%
% Increase Over Control (E. coli; strain BX_00368.0: BW25113 wild type + pBT-3-cynTS, M9 + Cm (20 μg/mL)): 20%
% Increase Over Control (E. coli; strain BX_00370.0: BW25113 wild type + pBT-3-speB, M9 + Cm (20 μg/mL)): 20%
3-HP concentration at which a dramatic reduction in cell density (OD600) at 24 hours starts [1]: ≥ 30 g/L
% Increase Over Control ([2]; strain YX-CJR-005 (pYes2.1-Met6) versus YX-CJR-001, anaerobic): 50%
% Increase Over Control ([2]; strain YX-CJR-008 (pyes2.1-ILV1) versus YX-CJR-001, anaerobic): 50%
3-HP mass extractant ([3]; Alamine 336 with Butanol (1)): 0.59 G
3-HP mass raffinate ([3]; Alamine 336 with Butanol (1)): 0.38 G
% 3-HP extracted ([3]; Alamine 336 with Butanol (1)): 61%
% 3-HP raffinate ([3]; Alamine 336 with Butanol (1)): 39%
Total 3HP extracted ([3]; Alamine 336 with Butanol (1)): 0.59 G
3-HP mass raffinate [3, 4]: 0.81 G
% 3-HP extracted [3, 4]: 58%
% 3-HP raffinate [3, 4]: 42%
3-HP mass raffinate [3, 5]: 0.63 G
% 3-HP extracted [3, 5]: 67%
% 3-HP raffinate [3, 5]: 33%
3-HP mass extractant [3, 6]: 0.73 G
% 3-HP extracted [3, 6]: 38%
% 3-HP raffinate [3, 6]: 62%
Total 3HP extracted [3, 6]: 0.73 G
3-HP mass extractant [3, 7]: 0.46 G
% 3-HP extracted [3, 7]: 24%
% 3-HP raffinate [3, 7]: 76%
Total 3HP extracted [3, 7]: 0.46 G

From patent US9388419B2 (The Regents of the University of Colorado, a body corporate, priority 2009, dated 2016)
